Assays:
LDLR−/− mice = experiment: NR rescue of SNHG12-gapmeR accelerated atherosclerosis in LDLR−/− mice; format: in vivo, mouse
Experimental: FIGS. 5A-G. NR rescued progression of atherosclerotic lesions in LDLR^−/− mice induced by SNHG12 silencing. (A) LDLR^−/− mice were i.v. injected with vehicle control or SNHG12-gapmeR (7.5 mg/kg/mouse) twice per week and placed on an HCD containing NR (400 mg/kg/day) for 12 weeks (n=12 per group). (B) Lesion areas were quantified using ORO area on aortic sinus sections (n=10 per group). Fold change was calculated compared to groups from study 1 as described in FIG. 1. P value was determined by Student's t test. (C) Lesional DNA damage in the vascular endothelium of the aortic arch was quantified in LDLR^−/− mice by γH2AX with nuclear co-localization with DAPI in CD31^+ cells compared to study 1. RT-qPCR analysis for (D) SNHG12 and (E) markers of senescence p16, p21, and p27 from RNA isolated of the aortic intima of mice placed on HCD containing NR (n=6 per group). P value was determined by Student's t test. (F) Acellular areas were measured in the aortic sinus for each of the indicated groups (n=6 per group; 2-3 lesion per mice). (G) TUNEL staining was quantified in the aortic sinus for each of the indicated groups (n=7 per group). P value was determined by Student's t test. For all panels, values are mean±SD; *p<0.05, **p<0.01; ***p<0.001; ****p<0.0001.
Furthermore, administration of the NAD^+ precursor NR can limit DNA damage. […] To assess whether SNHG12-deficient lesion progression involves increased DNA damage, SNHG12-gapmeR was delivered i.v. as described in (FIG. 1F) and the HCD was supplemented with NR (400 mg/kg/day) (FIG. 5A). […] Moreover, NR administration abrogated the SNHG12-gapmeR mediated effect on increased γH2AX foci in lesional ECs in the aortic arch (FIG. 5C). Consistent with less DNA damage, the induction of the senescence markers p16, p21, and p27 fell in the presence of NR compared to LDLR^−/− mice treated with SNHG12-gapmeRs without NR (FIGS. 5D, 5E). […] Taken together, the rescue effects mediated by NR strongly support the findings that the lncRNA SNHG12 regulates the DDR both in vitro and in vivo.

HUVECs = experiment: Mitochondrial stress (Seahorse OCR/ECAR, NAD+/NADH) in gapmeR-transfected HUVECs; format: cell-based, human
Experimental: FIGS. 13A-D. Accumulating DNA damage and its effect on mitochondrial stress. (A) Oxidative consumption rate (OCR) and extracellular acidification rate (ECAR). The bars from left to right represent control, control+NR, SNHG12 KD, and SNHG12 KD+NR, respectively. (B) in HUVECs transfected with the indicated gapmeRs in the absence or presence of NR (500 μM, 24 hrs) (n=3). P value was determined by one-way analysis of variance (ANOVA) (Fisher's test). The bars from left to right represent control, control+NR, SNHG12 KD, and SNHG12 KD+NR, respectively. (C) SNHG12 expression or (D) ratio of NAD+ to […] in gapmeR-transfected HUVECs in the absence or presence of NR (n=3). P value was determined by Student's t test. For all panels, values are mean±SD; *p<0.05, **p<0.01; ***p<0.001; ****p<0.0001.
Mitochondrial dysfunction is a hallmark of senescence and reparative responses during oxidative insults requires effective energy metabolism. Oxidative stress-induced DNA damage activates NAD+ consumption pathways (31). Examination of the effect of SNHG12 knockdown on key mitochondrial activities such as mitochondrial respiration and glycolysis in ECs used Seahorse analyses. Loss of SNHG12 decreased the extracellular acidification rate (ECAR) and oxygen consumption rate (OCR) of live cells (FIGS. 13A, 13B). […]

DNA-PK = target: T1, DNA-PK (Homo sapiens, UniProt P78527); experiment: lncRNA pulldown of biotinylated SNHG12 domain deletion constructs; format: binding; conditions: pulldown with HUVEC nuclear protein lysate
T1 construct: lncRNA pulldown using nuclear protein extract from HUVECs; endogenous in cells; host or cells: HUVEC nuclear protein lysate
Excerpt: (A) Proteins identified in pulldowns of biotinylated SNHG12; DNA-PK bound specifically to SNHG12 compared to negative control LacZ (n=2, two technical replicates each). (B) Immunoblotting for DNA-PK, ATM, ATR, Ku80, Ku70, p53, and control on nuclear protein lysate from HUVECs after lncRNA pulldown (n=5). (C) Analysis after streptavidin pulldown of nuclear protein lysate derived from the aorta of C57B1/6 mice following two i.v. injections of biotin-labeled SNHG12 compared to LacZ (n=4 per group). (D, E) Predicted secondary structure of SNHG12 with indicated deletions of domains 1˜4 used for subsequent lncRNA pulldown of biotinylated SNHG12 domain deletion constructs (n=4). P value was determined by one-way analysis of variance (ANOVA) (Fisher's test). (F) IP for DNA-PK following RNA isolation and subsequent RT-qPCR for SNHG12 and for negative control HPRT (n=5). […] Immunoblotting for Ku70, Ku80 and DNA-PK and (H) quantification under H2O2 conditions (n=3). […]
To identify potential SNHG12-interacting proteins that may inform mechanisms underlying these findings, biotin-labeled T7 in vitro transcribed SNHG12 or LacZ was incubated with nuclear protein lysate of HUVECs (FIG. 9A). […] Furthermore, biophysical studies determined the equilibrium dissociation constant (KD) for the SNHG12-DNA-PK interaction (1.318E-07 μM) (FIG. 9E). […]

T1 sequence (P78527 whole entry, the tested form may be a part): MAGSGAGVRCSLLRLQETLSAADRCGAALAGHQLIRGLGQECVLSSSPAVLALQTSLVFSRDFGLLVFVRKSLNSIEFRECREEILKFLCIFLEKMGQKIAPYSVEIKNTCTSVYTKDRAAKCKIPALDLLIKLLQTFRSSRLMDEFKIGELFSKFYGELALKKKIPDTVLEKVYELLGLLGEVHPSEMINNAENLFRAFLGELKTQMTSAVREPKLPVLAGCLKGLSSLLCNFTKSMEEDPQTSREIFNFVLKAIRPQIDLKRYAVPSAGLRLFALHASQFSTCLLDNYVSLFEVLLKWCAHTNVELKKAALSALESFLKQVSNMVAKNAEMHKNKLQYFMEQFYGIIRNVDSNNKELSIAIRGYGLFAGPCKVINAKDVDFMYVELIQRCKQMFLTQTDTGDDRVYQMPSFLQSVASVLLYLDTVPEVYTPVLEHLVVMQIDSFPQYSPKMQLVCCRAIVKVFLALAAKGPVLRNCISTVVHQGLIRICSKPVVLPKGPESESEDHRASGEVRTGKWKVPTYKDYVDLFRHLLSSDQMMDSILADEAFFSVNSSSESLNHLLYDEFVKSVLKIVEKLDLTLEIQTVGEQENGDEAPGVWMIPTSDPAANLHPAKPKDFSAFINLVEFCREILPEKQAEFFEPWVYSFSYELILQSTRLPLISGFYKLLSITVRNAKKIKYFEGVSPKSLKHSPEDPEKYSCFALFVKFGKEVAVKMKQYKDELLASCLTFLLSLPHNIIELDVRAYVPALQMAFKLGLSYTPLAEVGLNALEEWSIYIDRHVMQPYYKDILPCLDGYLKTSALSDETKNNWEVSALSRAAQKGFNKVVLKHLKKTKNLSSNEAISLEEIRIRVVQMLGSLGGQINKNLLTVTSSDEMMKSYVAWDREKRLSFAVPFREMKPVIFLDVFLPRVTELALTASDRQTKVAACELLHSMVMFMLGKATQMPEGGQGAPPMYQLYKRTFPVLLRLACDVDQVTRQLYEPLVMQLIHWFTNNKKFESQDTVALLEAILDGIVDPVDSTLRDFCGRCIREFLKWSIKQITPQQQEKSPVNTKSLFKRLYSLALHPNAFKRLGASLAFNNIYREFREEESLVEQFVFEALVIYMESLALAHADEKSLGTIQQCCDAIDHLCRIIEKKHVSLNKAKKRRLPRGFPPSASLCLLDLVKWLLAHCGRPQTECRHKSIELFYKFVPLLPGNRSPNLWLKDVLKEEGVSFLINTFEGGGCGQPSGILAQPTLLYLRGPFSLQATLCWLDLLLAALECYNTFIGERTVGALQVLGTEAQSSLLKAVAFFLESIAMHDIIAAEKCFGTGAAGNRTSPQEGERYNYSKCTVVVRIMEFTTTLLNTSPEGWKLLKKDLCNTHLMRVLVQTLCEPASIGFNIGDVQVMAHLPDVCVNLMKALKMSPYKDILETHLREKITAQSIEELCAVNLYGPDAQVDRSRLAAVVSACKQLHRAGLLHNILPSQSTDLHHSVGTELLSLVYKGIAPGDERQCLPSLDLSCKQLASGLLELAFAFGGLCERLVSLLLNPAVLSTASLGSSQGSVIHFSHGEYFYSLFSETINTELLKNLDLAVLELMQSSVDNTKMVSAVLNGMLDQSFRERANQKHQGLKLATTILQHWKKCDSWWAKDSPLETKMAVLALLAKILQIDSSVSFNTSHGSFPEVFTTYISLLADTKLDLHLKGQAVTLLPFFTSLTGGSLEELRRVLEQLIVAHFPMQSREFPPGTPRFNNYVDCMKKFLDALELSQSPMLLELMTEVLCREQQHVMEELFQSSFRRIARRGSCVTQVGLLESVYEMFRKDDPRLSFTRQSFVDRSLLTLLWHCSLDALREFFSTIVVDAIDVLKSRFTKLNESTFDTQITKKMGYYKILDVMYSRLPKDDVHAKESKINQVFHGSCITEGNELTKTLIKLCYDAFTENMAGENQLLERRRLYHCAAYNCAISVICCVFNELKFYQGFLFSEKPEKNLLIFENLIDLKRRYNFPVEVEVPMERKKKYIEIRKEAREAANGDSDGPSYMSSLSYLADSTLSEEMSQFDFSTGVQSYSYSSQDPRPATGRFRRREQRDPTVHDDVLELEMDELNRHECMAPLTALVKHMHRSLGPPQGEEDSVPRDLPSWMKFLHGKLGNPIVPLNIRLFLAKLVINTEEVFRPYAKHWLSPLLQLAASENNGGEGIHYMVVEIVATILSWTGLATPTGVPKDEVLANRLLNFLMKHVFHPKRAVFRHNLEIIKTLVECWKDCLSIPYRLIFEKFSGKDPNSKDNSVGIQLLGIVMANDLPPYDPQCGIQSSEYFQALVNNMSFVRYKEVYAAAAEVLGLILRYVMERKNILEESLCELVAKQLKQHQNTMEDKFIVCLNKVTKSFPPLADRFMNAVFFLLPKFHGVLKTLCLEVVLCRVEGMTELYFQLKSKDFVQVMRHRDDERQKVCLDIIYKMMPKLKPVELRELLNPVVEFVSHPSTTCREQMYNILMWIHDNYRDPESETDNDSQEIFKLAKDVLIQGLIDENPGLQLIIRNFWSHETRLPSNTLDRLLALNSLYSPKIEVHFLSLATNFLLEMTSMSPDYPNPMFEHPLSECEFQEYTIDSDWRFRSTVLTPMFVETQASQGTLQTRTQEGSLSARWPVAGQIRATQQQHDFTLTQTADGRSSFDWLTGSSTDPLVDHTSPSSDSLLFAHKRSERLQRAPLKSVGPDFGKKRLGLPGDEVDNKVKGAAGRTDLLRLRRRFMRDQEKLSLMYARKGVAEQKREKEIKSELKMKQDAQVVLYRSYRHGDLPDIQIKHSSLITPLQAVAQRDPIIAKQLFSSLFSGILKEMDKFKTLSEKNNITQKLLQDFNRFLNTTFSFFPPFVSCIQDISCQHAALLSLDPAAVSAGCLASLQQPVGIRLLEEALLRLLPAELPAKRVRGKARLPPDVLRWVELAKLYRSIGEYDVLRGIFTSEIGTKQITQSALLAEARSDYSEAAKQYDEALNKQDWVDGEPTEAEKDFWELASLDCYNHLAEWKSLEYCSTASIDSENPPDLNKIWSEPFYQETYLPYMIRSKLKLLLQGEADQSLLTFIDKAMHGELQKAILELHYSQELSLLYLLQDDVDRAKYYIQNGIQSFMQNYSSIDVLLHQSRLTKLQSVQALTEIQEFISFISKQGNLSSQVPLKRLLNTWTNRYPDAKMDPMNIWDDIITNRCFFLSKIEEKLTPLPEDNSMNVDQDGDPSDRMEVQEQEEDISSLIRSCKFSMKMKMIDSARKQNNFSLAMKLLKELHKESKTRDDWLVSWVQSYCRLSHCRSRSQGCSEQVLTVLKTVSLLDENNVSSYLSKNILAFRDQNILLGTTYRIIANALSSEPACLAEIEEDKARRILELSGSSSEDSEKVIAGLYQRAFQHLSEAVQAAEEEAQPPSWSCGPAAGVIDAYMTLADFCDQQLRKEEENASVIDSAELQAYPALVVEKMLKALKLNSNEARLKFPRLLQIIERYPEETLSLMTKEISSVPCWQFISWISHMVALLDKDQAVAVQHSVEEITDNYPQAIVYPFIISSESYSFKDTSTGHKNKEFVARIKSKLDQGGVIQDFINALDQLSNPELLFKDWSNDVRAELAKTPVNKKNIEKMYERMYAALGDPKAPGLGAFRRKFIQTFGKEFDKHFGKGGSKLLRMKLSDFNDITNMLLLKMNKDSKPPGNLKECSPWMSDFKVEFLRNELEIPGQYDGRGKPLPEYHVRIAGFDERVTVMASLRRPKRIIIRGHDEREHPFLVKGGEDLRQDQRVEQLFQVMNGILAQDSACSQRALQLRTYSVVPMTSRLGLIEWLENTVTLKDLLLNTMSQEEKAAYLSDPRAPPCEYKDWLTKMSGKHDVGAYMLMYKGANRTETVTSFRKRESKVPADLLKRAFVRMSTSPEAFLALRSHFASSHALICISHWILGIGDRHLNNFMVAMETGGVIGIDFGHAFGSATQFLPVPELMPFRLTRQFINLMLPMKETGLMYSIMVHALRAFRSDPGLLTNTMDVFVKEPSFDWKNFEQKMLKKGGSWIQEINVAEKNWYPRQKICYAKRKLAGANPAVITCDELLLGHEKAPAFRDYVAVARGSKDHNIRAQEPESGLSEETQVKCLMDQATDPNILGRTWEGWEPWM

Molecule | increase in lesion areas by ORO between SNHG12-gapmeR and control-gapmeR groups on NR (LDLR−/− mice; HCD with NR 400 mg/kg/day, 12 weeks, P=0.1729) | SNHG12-gapmeR mediated increase of γH2AX foci in lesional ECs in the aortic arch (LDLR−/− mice; NR 400 mg/kg/day, 12 weeks) | induction of senescence markers p16, p21, and p27 compared to SNHG12-gapmeR without NR (LDLR−/− mice; aortic intima, NR 400 mg/kg/day) | TUNEL positive cells compared to groups without NR (LDLR−/− mice; aortic sinus, NR 400 mg/kg/day) | differences in plaque necrosis (LDLR−/− mice; aortic sinus, NR 400 mg/kg/day) | SNHG12 expression (HUVECs; NR 500 μM, 24 hrs) | NAD+/NADH ratio (HUVECs; gapmeR-transfected HUVECs, absence or presence of NR) | reduction of DNA-PK binding (DNA-PK) [%]
NC(=O)c1ccc[n+]([C@@H]2O[C@H](CO)[C@@H](O)[C@H]2O)c1 [NR, Nicotinamide Riboside] | no significant | abrogated | fell | reduced | eliminated differences | did not affect | partially rescued | 
Deletion of domain-4: biotinylated SNHG12 construct with predicted secondary-structure domain 4 deleted (nucleic acid, listed as Homo sapiens, biotin, biotinylated SNHG12 construct with predicted secondary-structure domain 4 deleted) TGCAAGCCTCTGCCTGCCTTCCTGCGCGCCGTTCCCCGCTAGTCGCTGCTGCTGGCGCGCACTCGCCGGGTTTTTCCTCCCACGGCCTCGAGATGGTGGTGAATGTGGCACGGAGGAGCCGGGCCTTCCAACCCGGTGGGCCCGAGCTCCGAAAGGCCCCCTCGGCAGTGAGAGGGGCGGGAGCCCGCGGGGGCCGCGCCCTTCTCTCGCTTCGGACTGCGCAACGCTGCGCTCTGGGCTGACAGGCGGATAAAACGGTCCCATCAAGACTGAGAAAAAGCACACCAGCTATTGGCACAGCGTGGGCAGTGGGGCCTACAGGATGACTGACTTAGTCTACAGAGATCCCGGCGTACTTAAGCAGATGAAGACTCTTAAGATGACAGAAGGTGATTTTTCTGGTGATCGAGGACTTCCGGGGTAATGACAGTGATGAAATGCAGGGGACCTGGTTGCCCCCAAGTTTCCTGGCAGTGTGTGATACTGAGGAGGTGAGCTTGTTTCTGGAGCTGTGCTTTAAGGTAAAGTTGATCAGCTTAATCCTCCTGATCCCTTTCCCA |  |  |  |  |  |  |  | ~50

Reference: US20220010310A1, “An lncRNA integrates a DNA-PK-mediated DNA damage response and vascular senescence” (The Brigham and Women`s Hospital, Inc., priority 2018, published 2022)
